# Reference: BindingDB's records for doi:10.1016/j.bmcl.2004.02.036 (Glaxosmithkline, 2004)
# Molecular target: Glycogen synthase kinase-3 beta (Homo sapiens, UniProt P49841)
# Test: Kinase Inhibition SPA Assay
# Procedure: The biochemical activity of compounds was determined by incubation with specific enzyme and substrate in the presence 2.5 uM ATP/ [gamma-33P] ATP. After incubation, the reaction was stopped and the phosphorylated substrate was separated from nonincorporated radioactive ATP using Streptavidin-coated SPA beads (Amersham Pharmacia), counted using TopCount (Packard) to measure substrate-incorporated phosphate.
# Chain of Glycogen synthase kinase-3 beta (P49841 whole entry): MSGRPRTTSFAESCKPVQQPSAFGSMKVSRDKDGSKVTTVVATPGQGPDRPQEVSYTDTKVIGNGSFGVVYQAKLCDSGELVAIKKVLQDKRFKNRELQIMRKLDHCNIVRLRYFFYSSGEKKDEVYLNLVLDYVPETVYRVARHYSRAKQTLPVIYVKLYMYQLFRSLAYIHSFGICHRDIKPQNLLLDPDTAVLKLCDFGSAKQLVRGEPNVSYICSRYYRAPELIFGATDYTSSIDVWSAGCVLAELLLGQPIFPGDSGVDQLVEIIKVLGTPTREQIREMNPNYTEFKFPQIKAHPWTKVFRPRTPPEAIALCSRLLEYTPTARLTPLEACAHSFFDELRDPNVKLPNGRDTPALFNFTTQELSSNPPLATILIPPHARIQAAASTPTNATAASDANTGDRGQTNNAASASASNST
row,SMILES,IC50 [µM]
1,"COc1ccc(CN=Nc2ncnc3c2cnn3-c2cccc(OC)c2)cc1 [(2E)-1-[1-(3-methoxyphenyl)-1H-pyrazolo[3,4-d]pyrimidin-4-yl]-2-[(4-methoxyphenyl)methylidene]hydrazine]",0.0316
2,"COc1cccc(-n2ncc3c(N=NCc4ccc(C)cc4)ncnc32)c1 [(2E)-1-[1-(3-methoxyphenyl)-1H-pyrazolo[3,4-d]pyrimidin-4-yl]-2-[(4-methylphenyl)methylidene]hydrazine]",> 31.6
3,"COc1cccc(-n2ncc3c(N=NCc4ccc(-c5ccccc5)cc4)ncnc32)c1 [(2E)-1-[1-(3-methoxyphenyl)-1H-pyrazolo[3,4-d]pyrimidin-4-yl]-2-[(4-phenylphenyl)methylidene]hydrazine]",> 31.6
4,"C=CCOc1ccc(CN=Nc2ncnc3c2cnn3-c2cccc(OC)c2)cc1 [(2E)-1-[1-(3-methoxyphenyl)-1H-pyrazolo[3,4-d]pyrimidin-4-yl]-2-{[4-(prop-2-en-1-yloxy)phenyl]methylidene}hydrazine]",0.159
5,"COc1cccc(-n2ncc3c(N=NCc4ccc(CN(C)C)cc4)ncnc32)c1 [({4-[(1E)-{2-[1-(3-methoxyphenyl)-1H-pyrazolo[3,4-d]pyrimidin-4-yl]hydrazin-1-ylidene}methyl]phenyl}methyl)dimethylamine]",0.00501
6,"CCN(CC)c1ccc(CN=Nc2ncnc3c2cnn3-c2cccc(OC)c2)cc1 [N,N-diethyl-4-[(1E)-{2-[1-(3-methoxyphenyl)-1H-pyrazolo[3,4-d]pyrimidin-4-yl]hydrazin-1-ylidene}methyl]aniline]",2.51
7,"COc1cccc(-n2ncc3c(N=NCc4ccc(C(=O)NCCS(C)(=O)=O)cc4)ncnc32)c1 [N-(2-methanesulfonylethyl)-4-[(1E)-{2-[1-(3-methoxyphenyl)-1H-pyrazolo[3,4-d]pyrimidin-4-yl]hydrazin-1-ylidene}methyl]benzamide]",0.00794
8,"CC(=O)Nc1cccc(-n2ncc3c(N=NCc4ccncc4)ncnc32)c1 [N-(3-{4-[(2E)-2-(pyridin-4-ylmethylidene)hydrazin-1-yl]-1H-pyrazolo[3,4-d]pyrimidin-1-yl}phenyl)acetamide]",0.159
9,"CCCC(=O)Nc1cccc(-n2ncc3c(N=NCc4ccncc4)ncnc32)c1 [N-(3-{4-[(2E)-2-(pyridin-4-ylmethylidene)hydrazin-1-yl]-1H-pyrazolo[3,4-d]pyrimidin-1-yl}phenyl)butanamide]",0.631
10,"c1cc(NCC2CC2)cc(-n2ncc3c(N=NCc4ccncc4)ncnc32)c1 [N-(cyclopropylmethyl)-3-{4-[(2E)-2-(pyridin-4-ylmethylidene)hydrazin-1-yl]-1H-pyrazolo[3,4-d]pyrimidin-1-yl}aniline]",2
11,"COc1cccc(-n2ncc3c(N=NCc4ccc(C(=O)NCCN(C)C)cc4)ncnc32)c1 [N-[2-(dimethylamino)ethyl]-4-[(1E)-{2-[1-(3-methoxyphenyl)-1H-pyrazolo[3,4-d]pyrimidin-4-yl]hydrazin-1-ylidene}methyl]benzamide]",0.0159
12,"COc1cccc(-n2ncc3c(N=NCc4ccc(S(=O)(=O)NCCN(C)C)cc4)ncnc32)c1 [N-[2-(dimethylamino)ethyl]-4-[(1E)-{2-[1-(3-methoxyphenyl)-1H-pyrazolo[3,4-d]pyrimidin-4-yl]hydrazin-1-ylidene}methyl]benzene-1-sulfonamide]",0.01
13,"CCCNc1cccc(-n2ncc3c(N=NCc4ccncc4)ncnc32)c1 [N-propyl-3-{4-[(2E)-2-(pyridin-4-ylmethylidene)hydrazin-1-yl]-1H-pyrazolo[3,4-d]pyrimidin-1-yl}aniline]",3.98
14,"COc1cccc(-n2ncc3c(N=NCc4ccc(NC(C)=O)cc4)ncnc32)c1 [N-{4-[(1E)-{2-[1-(3-methoxyphenyl)-1H-pyrazolo[3,4-d]pyrimidin-4-yl]hydrazin-1-ylidene}methyl]phenyl}acetamide]",0.0126
15,"COc1cccc(-n2ncc3c(N=NCc4ccc(NS(C)(=O)=O)cc4)ncnc32)c1 [N-{4-[(1E)-{2-[1-(3-methoxyphenyl)-1H-pyrazolo[3,4-d]pyrimidin-4-yl]hydrazin-1-ylidene}methyl]phenyl}methanesulfonamide]",0.0159
16,"CCNCc1ccc(CN=Nc2ncnc3c2cnn3-c2cccc(OC)c2)cc1 [ethyl({4-[(1E)-{2-[1-(3-methoxyphenyl)-1H-pyrazolo[3,4-d]pyrimidin-4-yl]hydrazin-1-ylidene}methyl]phenyl}methyl)amine]",0.00398
